Measured values reported in ChEMBL document CHEMBL1201862, “PubChem BioAssay data set” (2004).
Calls of active or inactive are those of the source.

Experiments:
Vero = assay: viability of Vero cells under compound – cytotoxicity control for flavivirus capping enzyme inhibitors (AID 588742); format: functional; conditions: Chlorocebus sabaeus
Paired box protein Pax-8 = Paired box protein Pax-8 (Homo sapiens, UniProt Q06710); assay: PAX8 transcriptional activity inhibition in RMG-I – RMG-I cells, luciferase, cherry-pick, dose response (AID 687027); format: functional, cell-based;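 also: luciferase reporter driven by Pax8 target thyroperoxidase promoter measured by SteadyGlo luminescence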
Fatty acid synthase = Fatty acid synthase (Homo sapiens, UniProt P49327); assay: inhibition of human FAS-TE enzyme activity – biochemical, kinetic fluorescence intensity, dose response (AID 624326); format: functional;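 also: rate of fluorescence rise from hydrolysis of a fluorogenic O-methyl fluorescein ester substrate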
[1] = general cell-killing toxicity readout – plate reader, dry powder samples, cytotoxicity control for PAX8 inhibitor project, dose response (AID 743021); format: functional, cell-based
Genome polyprotein = Genome polyprotein (dengue virus type 2, UniProt P29990); assay: flavivirus cap methylation enzyme inhibition – biochemical, confirmation dose response, primary screen (AID 588689); format: functional
[2] = target: T1, Voltage-gated N-type calcium channel alpha-1B subunit/Amyloid beta A4 precursor protein-binding family A member 1 (Homo sapiens, UniProt Q00975+Q02410); format: protein assay
[3] = target: T1, Voltage-gated N-type calcium channel alpha-1B subunit/Amyloid beta A4 precursor protein-binding family A member 1; format: protein assay; remark: listed apart in the source
[4] = target: Sphingosine 1-phosphate receptor 1 (Homo sapiens, UniProt P21453); format: functional;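 also: Tango beta-arrestin reporter U2OS cells stimulated with S1P near its EC80; inhibitor potency meaning antagonism of receptor activation by the natural agonist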
[5] = target: G-protein coupled receptor 35 (Homo sapiens, UniProt Q9HC97); assay: inhibition of zaprinast-stimulated GPR35 beta-arrestin translocation – imaging, U2OS, beta-arrestin-GFP, zaprinast agonist, primary screen (AID 2058); format: functional;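 also: antagonist potency meaning inhibition of agonist-induced arrestin redistribution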
[6] = luciferase reporter signal suppression in cells – H4 neuroglioma cells, luminescence, dose response (AID 1990); format: functional, cell-based
Ephrin type-A receptor 4 = Ephrin type-A receptor 4 (Mus musculus, UniProt Q03137); assay: EphA4 ligand-binding antagonists – biochemical, colorimetric, mouse EphA4, primary screen (AID 689); format: functional
[7] = target: Tyrosine-protein kinase Fyn (Homo sapiens, UniProt P06241); format: functional
[8] = target: Receptor tyrosine-protein kinase erbB-4 (Homo sapiens, UniProt Q15303); format: functional;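 also: ERBB4 member of a kinome-wide kinase profiling panel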
[9] = target: Serine/threonine-protein kinase PAK 4 (Homo sapiens, UniProt O96013); format: functional;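 also: value obtained within a kinome profiling panel in which PAK4 was one of the panel members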
[10] = target: MAP kinase-activated protein kinase 5 (Homo sapiens, UniProt Q8IW41); format: functional;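 also: measured as one member of a kinome panel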
[11] = target: Serine/threonine-protein kinase PAK 1 (Homo sapiens, UniProt Q13153); format: functional
[12] = target: MAP/microtubule affinity-regulating kinase 3 (Homo sapiens, UniProt P27448); format: functional;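 also: MARK3 affinity measured as one member of a kinome panel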
[13] = target: Calcium/calmodulin-dependent protein kinase type 1 (Homo sapiens, UniProt Q14012); format: functional
[14] = target: Tyrosine-protein kinase Blk (Homo sapiens, UniProt P51451); format: functional;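 also: obtained as one member of a kinome-wide kinase assay panel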
[15] = target: Phosphorylase b kinase gamma catalytic chain, liver/testis isoform (Homo sapiens, UniProt P15735); format: functional;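 also: PHKG2 measured as one member of a kinome-wide kinase panel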
[16] = target: Receptor tyrosine-protein kinase erbB-2 (Homo sapiens, UniProt P04626); assay: Navigating the Kinome. Panel member name: ERBB2; format: functional
[17] = target: Eukaryotic elongation factor 2 kinase (Homo sapiens, UniProt O00418); format: functional
[18] = target: BDNF/NT-3 growth factors receptor (Homo sapiens, UniProt Q16620); format: functional;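 also: NTRK2 measured as one member of a broad kinome-wide kinase profiling panel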
[19] = target: Dual specificity protein kinase CLK2 (Homo sapiens, UniProt P49760); format: functional
[20] = target: Interleukin-1 receptor-associated kinase 4 (Homo sapiens, UniProt Q9NWZ3); format: functional
[21] = target: Dual specificity tyrosine-phosphorylation-regulated kinase 1A (Homo sapiens, UniProt Q13627); format: functional;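 also: measured against DYRK1A as one member of a broad kinome profiling panel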
[22] = target: Serine/threonine-protein kinase 17A (Homo sapiens, UniProt Q9UEE5); format: functional
[23] = target: Tyrosine-protein kinase BTK (Homo sapiens, UniProt Q06187); format: functional
[24] = viability of HCT116 lacking mutant beta-catenin – cell-based, human colon tumor, dose response (AID 1045); format: functional;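 also: HCT116 colon tumor cells with beta catenin knocked out; cells exposed to compound for 60 hours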
[25] = viability of PTEN-deleted HCT116 cells – cell-based, HCT116 PTEN knockout, dose response (AID 1047); format: functional;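 also: HCT116 colon tumor cells with PTEN knocked out; cells exposed to compound for 60 hours before readout; potency for loss of cell viability measured by luminescence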
Beta-galactosidase = Beta-galactosidase (Escherichia coli, UniProt Q8VNN2); assay: detection-enzyme interference by beta-gal modulators – biochemical, E. coli enzyme, set 3, artefact control for CCR6 antagonist project, dose response (AID 504712); format: functional
[26] = target: T2, Heat shock factor protein 1 (Mus musculus, UniProt P38532); assay: decrease of HSF1-responsive luciferase luminescence – cell-based, NIH3T3, dose retest, confirmation (AID 2382); format: functional;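 also: NIH3T3 fibroblasts with HSF1-driven luciferase reporter stressed by proteasome inhibitor MG132; luminescence from HSF1-driven luciferase expression after 8 hours of MG132 stress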
T2 sequence (P38532 whole entry): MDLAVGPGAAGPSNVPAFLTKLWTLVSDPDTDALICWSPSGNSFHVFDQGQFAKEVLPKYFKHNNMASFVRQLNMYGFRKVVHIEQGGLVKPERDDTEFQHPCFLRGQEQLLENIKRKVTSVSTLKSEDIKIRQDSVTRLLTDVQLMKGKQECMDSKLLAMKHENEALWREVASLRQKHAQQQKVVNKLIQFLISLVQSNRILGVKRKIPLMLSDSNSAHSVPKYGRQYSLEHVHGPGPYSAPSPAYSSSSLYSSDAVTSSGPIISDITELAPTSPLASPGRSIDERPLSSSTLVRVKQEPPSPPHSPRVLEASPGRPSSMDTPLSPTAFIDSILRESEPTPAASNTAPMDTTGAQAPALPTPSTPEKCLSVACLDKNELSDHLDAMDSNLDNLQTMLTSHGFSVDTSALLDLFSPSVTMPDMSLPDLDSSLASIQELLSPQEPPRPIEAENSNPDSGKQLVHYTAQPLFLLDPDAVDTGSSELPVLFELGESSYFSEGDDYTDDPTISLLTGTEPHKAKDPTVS

BJ = assay: BJ-TERT fibroblast viability loss – cell-based, RAS-independent, luminescence, dose response (AID 1933); format: functional; conditions: Homo sapiens
[27] = target: T3, Sentrin-specific protease 8 (Homo sapiens, UniProt Q96LD8); format: functional;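 also: kinetic enzyme assay of SENP8 cleaving a Nedd8 protein substrate, dose-response confirmation of screening hits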
T3 sequence (Q96LD8 whole entry): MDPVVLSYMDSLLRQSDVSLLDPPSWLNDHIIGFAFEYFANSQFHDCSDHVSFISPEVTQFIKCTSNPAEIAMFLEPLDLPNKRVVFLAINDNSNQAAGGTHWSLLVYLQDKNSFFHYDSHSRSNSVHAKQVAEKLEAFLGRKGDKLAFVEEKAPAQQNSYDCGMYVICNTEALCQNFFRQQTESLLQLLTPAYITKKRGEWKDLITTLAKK

T1 sequence (Q00975 whole entry): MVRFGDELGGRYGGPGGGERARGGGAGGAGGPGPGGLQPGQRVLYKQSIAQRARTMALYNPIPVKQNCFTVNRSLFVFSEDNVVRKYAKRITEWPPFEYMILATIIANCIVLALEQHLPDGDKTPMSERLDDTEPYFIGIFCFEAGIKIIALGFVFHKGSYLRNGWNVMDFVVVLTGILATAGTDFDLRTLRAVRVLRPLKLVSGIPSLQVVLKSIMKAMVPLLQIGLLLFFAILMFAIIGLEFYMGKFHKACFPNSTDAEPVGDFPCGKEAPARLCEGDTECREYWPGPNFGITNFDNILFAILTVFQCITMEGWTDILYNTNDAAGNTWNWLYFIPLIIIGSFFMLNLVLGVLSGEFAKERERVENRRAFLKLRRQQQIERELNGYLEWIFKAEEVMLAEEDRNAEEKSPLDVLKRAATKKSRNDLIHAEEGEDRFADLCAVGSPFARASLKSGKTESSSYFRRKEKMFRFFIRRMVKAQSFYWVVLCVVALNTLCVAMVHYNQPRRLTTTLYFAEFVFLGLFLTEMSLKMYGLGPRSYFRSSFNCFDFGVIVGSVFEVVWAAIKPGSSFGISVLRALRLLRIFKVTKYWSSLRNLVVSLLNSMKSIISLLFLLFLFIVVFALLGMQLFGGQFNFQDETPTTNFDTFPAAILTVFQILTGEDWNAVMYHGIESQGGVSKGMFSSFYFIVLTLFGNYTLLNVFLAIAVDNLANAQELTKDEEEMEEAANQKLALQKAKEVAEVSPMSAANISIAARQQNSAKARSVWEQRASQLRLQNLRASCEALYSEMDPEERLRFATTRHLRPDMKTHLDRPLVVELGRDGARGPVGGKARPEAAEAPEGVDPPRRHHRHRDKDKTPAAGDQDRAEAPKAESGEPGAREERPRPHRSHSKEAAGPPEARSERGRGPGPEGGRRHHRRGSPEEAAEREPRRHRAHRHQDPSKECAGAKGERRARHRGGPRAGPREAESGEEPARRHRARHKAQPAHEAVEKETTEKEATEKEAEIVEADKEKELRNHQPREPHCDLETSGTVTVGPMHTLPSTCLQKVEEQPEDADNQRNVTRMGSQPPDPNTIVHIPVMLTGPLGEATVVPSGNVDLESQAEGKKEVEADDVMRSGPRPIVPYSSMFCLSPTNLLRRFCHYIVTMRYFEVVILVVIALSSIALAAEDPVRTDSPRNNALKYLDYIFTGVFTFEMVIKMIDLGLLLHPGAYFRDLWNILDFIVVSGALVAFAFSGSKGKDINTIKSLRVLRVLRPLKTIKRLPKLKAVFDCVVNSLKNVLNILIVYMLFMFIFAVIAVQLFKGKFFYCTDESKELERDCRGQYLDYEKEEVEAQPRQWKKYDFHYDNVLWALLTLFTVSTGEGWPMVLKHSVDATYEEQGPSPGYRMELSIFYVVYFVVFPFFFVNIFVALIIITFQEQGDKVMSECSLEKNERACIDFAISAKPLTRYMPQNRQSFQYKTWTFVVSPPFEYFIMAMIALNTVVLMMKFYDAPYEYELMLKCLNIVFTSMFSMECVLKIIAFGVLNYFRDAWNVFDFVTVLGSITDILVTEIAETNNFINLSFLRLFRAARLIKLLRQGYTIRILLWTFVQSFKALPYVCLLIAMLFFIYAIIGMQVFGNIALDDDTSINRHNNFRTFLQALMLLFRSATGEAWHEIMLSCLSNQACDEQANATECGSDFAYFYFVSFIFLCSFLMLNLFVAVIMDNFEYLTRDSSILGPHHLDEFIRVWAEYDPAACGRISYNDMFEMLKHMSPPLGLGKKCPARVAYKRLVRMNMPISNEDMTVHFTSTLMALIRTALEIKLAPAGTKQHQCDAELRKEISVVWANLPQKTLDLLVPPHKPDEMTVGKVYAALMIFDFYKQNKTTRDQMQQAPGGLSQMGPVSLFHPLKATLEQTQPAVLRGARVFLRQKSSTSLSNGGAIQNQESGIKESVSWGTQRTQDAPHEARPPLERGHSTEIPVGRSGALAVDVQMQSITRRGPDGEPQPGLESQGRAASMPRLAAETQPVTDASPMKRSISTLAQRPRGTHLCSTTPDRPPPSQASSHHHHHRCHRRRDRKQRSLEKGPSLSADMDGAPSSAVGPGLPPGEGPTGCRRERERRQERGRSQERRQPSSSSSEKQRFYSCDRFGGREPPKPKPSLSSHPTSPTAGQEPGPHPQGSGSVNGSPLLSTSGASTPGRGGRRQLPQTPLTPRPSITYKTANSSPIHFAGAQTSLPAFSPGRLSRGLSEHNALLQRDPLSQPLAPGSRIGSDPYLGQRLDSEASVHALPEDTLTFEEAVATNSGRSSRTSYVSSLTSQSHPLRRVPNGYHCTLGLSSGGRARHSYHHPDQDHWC
T1 sequence (Q02410 whole entry): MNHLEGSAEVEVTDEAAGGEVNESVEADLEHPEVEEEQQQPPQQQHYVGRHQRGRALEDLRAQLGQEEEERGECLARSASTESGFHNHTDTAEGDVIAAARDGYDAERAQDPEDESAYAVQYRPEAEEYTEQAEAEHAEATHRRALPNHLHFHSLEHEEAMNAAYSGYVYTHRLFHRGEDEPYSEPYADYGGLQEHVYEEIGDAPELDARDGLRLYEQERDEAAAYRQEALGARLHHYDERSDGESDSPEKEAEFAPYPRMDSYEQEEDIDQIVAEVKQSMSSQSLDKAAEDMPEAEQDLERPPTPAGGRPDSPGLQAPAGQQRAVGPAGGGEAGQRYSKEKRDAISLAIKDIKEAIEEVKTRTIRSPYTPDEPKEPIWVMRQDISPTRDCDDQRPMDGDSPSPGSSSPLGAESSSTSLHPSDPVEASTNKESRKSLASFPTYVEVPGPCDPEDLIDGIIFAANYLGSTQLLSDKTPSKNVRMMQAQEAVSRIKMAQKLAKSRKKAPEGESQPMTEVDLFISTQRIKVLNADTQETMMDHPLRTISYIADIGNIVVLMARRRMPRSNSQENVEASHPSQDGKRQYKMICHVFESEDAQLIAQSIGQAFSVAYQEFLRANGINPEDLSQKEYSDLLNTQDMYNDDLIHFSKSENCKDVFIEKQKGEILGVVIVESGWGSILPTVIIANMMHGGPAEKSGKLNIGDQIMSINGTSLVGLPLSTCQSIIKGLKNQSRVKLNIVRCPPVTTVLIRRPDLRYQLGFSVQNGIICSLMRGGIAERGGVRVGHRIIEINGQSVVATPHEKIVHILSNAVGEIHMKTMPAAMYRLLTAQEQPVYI
Chain of Receptor tyrosine-protein kinase erbB-4 (Q15303 whole entry): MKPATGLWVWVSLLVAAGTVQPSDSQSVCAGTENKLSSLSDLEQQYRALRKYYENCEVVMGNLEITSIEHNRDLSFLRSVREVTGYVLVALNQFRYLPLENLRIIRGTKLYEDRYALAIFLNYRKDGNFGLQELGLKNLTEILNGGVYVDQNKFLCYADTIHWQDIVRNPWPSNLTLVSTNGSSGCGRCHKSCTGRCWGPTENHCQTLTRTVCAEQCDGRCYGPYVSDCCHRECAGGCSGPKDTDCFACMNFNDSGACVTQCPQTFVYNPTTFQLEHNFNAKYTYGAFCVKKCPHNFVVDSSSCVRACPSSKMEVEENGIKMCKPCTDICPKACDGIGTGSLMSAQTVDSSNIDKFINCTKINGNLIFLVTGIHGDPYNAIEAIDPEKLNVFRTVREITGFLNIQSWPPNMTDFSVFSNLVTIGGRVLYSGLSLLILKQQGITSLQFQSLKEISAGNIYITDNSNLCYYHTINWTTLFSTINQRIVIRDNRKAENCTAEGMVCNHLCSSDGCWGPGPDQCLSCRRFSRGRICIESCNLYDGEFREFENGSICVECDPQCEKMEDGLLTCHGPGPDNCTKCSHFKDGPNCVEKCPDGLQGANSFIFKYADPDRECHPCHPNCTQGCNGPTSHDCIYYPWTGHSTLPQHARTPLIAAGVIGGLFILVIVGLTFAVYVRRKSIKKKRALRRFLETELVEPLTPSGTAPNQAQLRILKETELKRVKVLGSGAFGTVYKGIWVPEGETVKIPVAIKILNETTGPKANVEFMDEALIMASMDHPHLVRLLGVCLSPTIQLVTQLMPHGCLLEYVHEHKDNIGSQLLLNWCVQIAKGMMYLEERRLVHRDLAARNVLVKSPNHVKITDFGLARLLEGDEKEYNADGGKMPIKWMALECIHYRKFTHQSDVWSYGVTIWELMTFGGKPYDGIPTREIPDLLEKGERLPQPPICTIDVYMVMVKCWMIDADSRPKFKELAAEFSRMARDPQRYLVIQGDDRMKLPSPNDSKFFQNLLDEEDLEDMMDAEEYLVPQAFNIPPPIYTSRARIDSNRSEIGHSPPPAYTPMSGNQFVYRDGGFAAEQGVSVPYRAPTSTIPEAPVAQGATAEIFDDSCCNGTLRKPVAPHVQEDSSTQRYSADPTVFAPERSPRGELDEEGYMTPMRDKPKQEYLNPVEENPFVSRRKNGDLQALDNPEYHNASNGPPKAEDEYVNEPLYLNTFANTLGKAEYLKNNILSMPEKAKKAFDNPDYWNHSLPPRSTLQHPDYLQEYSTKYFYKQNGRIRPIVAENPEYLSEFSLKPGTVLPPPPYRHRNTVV
Chain of Serine/threonine-protein kinase PAK 4 (O96013 whole entry): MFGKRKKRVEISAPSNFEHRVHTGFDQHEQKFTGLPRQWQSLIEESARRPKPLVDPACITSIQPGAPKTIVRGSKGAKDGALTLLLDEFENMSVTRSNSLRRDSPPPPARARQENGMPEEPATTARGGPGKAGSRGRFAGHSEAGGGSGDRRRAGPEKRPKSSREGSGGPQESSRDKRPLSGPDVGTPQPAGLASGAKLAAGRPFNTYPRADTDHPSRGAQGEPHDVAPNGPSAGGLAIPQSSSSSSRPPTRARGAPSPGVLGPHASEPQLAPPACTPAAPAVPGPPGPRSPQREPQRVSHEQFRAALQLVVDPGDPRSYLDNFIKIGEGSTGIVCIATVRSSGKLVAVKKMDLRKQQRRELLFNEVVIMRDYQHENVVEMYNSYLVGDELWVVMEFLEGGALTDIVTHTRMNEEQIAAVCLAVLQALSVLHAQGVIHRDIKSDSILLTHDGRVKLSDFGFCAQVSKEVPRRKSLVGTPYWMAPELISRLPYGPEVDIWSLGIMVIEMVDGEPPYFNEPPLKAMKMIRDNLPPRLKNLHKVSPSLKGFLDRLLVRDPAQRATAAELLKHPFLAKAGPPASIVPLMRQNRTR

## CC(=O)N(C1=C(Cl)C(=O)c2ccccc2C1=O)C1CCCCC1
Vero
  CC50: 22.4 µM (active)
Paired box protein Pax-8
  AC50: 2.74 µM (active)
Fatty acid synthase
  IC50: 4.54 µM (active)
[1]
  AC50: 21.5 µM (active)
Genome polyprotein
  IC50: 38.3 µM (active)
[2]
  IC50: 3.65 µM (active)
[3]
  IC50: 0.745 µM (active)
[4]
  IC50: 9.5 µM (active)
[5]
  IC50: 5.55 µM (active)
[6]
  EC50: 9.51 µM (active)

## Oc1ccc(-c2cn3c(n2)SCC3)cc1O
Ephrin type-A receptor 4
  IC50: 42.3 µM (active)

## O=C1Nc2ccc3ncsc3c2C1=CNc1ccc(S(=O)(=O)Nc2ccccn2)cc1
[7]
  Ki: 0.2 µM (active)
[8]
  Ki: > 3.98 µM (inactive)
[9]
  Ki: 0.2 µM (active)
[10]
  Ki: 0.398 µM (active)
[11]
  Ki: 2 µM (active)
[12]
  Ki: 0.0398 µM (active)
[13]
  Ki: > 1.26 µM (inactive)
[14]
  Ki: 0.158 µM (active)
[15]
  Ki: 0.158 µM (active)
[16]
  Ki: > 1.58 µM (inactive)
[17]
  Ki: > 3.98 µM (inactive)
[18]
  Ki: 0.0794 µM (active)
[19]
  Ki: 0.0501 µM (active)
[20]
  Ki: 1.58 µM (active)
[21]
  Ki: 0.00794 µM (active)
[22]
  Ki: 0.00398 µM (active)
[23]
  Ki: 0.0794 µM (active)

## Cc1ccc(NC2=C/C(=N\S(=O)(=O)c3cccs3)c3ccccc3C2=O)c(C)c1
[24]
  EC50: 1.08 µM (active)
[25]
  EC50: 1.1 µM (active)
Beta-galactosidase
  IC50: > 66.6 µM (inactive)
[26]
  EC50: 1.56 µM (active)
BJ
  EC50: 2.51 µM (active)

## COc1ccc(/C=N/NC(=O)c2nn(-c3ccccc3)c(=O)c3c(N)scc23)cc1
[27]
  IC50: 0.415 µM (active)
